Assay results published in ChEMBL document CHEMBL1156829 (Proc Natl Acad Sci U S A, 2008).
Where a name gives a salt, the structure may show the parent alone.

How the values were obtained:
[1] = test system: Plasmodium falciparum; test: NOVARTIS: Inhibition of Plasmodium falciparum 3D7 (drug-susceptible) proliferation in erythrocyte-based infection assay; format: functional, organism-based; conditions: Plasmodium falciparum, 3D7
[2] = test system: Plasmodium falciparum; test: NOVARTIS: Inhibition of Plasmodium falciparum W2 (drug-resistant) proliferation in erythrocyte-based infection assay; format: functional, organism-based
[3] = NOVARTIS: Cytotoxicity against human hepatocellular carcinoma cell line (Huh7); format: toxicity, cell-based, Huh-7; conditions: Huh7 cells (hepatocellular carcinoma cell line)
[4] = Plasmodium falciparum, W2, read-out: EC50

Row | SMILES | EC50 [1] | EC50 [2, 4] | CC50 [3] | EC50 [2]
1 | CN(CCCNc1ccnc2cc(Cl)ccc12)C(=O)C1C[C@H]1c1ccccc1 (some centres undefined) | 0.0761 µM | 0.411 µM | > 11.6 µM | –
2 | CN(C)c1cc[n+](OC(=O)N2CCCCC2)cc1 | 0.133 µM | > 0.455 µM | > 10 µM | –
3 | O=C(COc1ccccc1Cl)OCc1cc(=O)n2nc(C3CC3)sc2n1 | > 0.803 µM | > 1.25 µM | > 10 µM | –
4 | COc1ccc(C2=C(Nc3ccc(C)c(C)c3)c3ccccc3C2=O)cc1 | 0.297 µM | 0.281 µM | > 100 µM | –
5 | COc1ccc(-n2nc(C(C)(C)C)cc2NC(=O)CN(C(=O)c2ccc(C(C)(C)C)cc2)C(C)C)cc1 | 1.68 µM | 1.85 µM | 34.6 µM | –
6 | CCN(CC)CCNc1ncnc2c1[nH]c1ccc(Br)cc12 | 0.288 µM | 0.318 µM | 19.5 µM | –
7 | CC1=C(C(=O)OC(C)C)C(c2ccc(Br)cc2)C2=C(CC(c3ccc(Cl)cc3)CC2=O)N1 (centres undefined) | 1.44 µM | 0.404 µM | > 100 µM | –
8 | CCCOC(=O)C1=C(C)NC2=C(C(=O)CCC2)C1c1cc(Br)c(O)c(OCC)c1 (centres undefined) | > 12.5 µM | 2.82 µM | > 100 µM | –
9 | CCOC(=O)C1=C(c2ccccc2)N=c2sc(=Cc3cc(C)n(-c4ccc(F)cc4)c3C)c(=O)n2C1c1cccc(OC)c1OC (centres undefined) | 2.33 µM | 2.28 µM | > 100 µM | –
10 | O=C(NN1CCOCC1)c1ccc(Br)cc1 | > 1.51 µM | > 0.997 µM | > 10 µM | –
11 | CCCOC(=O)C1=C(C)NC2=C(C(=O)CC(c3ccc(OC)c(OC)c3)C2)C1c1ccc(Br)cc1 (centres undefined) | 0.0377 µM | 0.0469 µM | > 100 µM | –
12 | COc1cc(NC(C)CCCN(Cc2ccccc2OC)C(=O)C(C)C)c2ncccc2c1 (centres undefined) | 0.684 µM | 0.406 µM | > 7.7 µM | –
13 | COC(=O)c1c(-c2c(F)cccc2Cl)noc1C=CNc1ccc(OC)cc1 | 10.2 µM | 5.29 µM | > 100 µM | –
14 | CCCN(Cc1cc(OC)c2c(c1)OCO2)CC1CC1 | > 1.72 µM | 0.566 µM | > 10 µM | –
15 | CCc1nc(N)nc(N)c1-c1ccc(Cl)cc1 [PYRIMETHAMINE] | 0.0319 µM | 0.0146 µM | 45.6 µM | –
16 | CCCc1cc(O)c2c3c(c(=O)oc2c1)CN(C)CC3 | 0.554 µM | 0.294 µM | > 100 µM | –
17 | COc1ccc(NC(=O)c2cc3cc(C4(O)CCN(CC5CC=CCC5)CC4)ccc3o2)cc1 (centres undefined) | 0.381 µM | 0.824 µM | 25.1 µM | –
18 | CCOC(=O)c1[nH]c(C)c(CNc2cccc(F)c2)c1C | 1.06 µM | 1.66 µM | > 10 µM | –
19 | CCCc1c(C(=O)OCC)c2cc(O)ccc2n1-c1ccc(OC)cc1 | 0.133 µM | 0.339 µM | > 100 µM | –
20 | CC(CN1CCC(n2cc(C(=O)N3CCCC3)nn2)CC1)c1ccccc1 (centres undefined) | 2.41 µM | 1.02 µM | > 100 µM | –
21 | CCCCOc1ccc(/C=C/C(=O)NCc2ccco2)cc1 | 0.183 µM | 0.744 µM | > 10 µM | –
22 | N=C(NN=Cc1cccc([N+](=O)[O-])c1)SC1CC(=O)N(c2cc(Cl)ccc2Cl)C1=O (centres undefined) | > 1.25 µM | > 1.19 µM | > 10 µM | –
23 | Clc1cccc(C(Nc2cccnc2)(c2ccccc2)c2ccccc2)c1 | 0.618 µM | 1.19 µM | > 10 µM | –

Row | SMILES | EC50 [1] | EC50 [2, 4] | CC50 [3] | EC50 [2]
24 | CCN(CC)c1ccc(N=Cc2ccc(Sc3nc4ccccc4s3)o2)cc1 | 0.271 µM | 0.0988 µM | 10.8 µM | –
25 | CC(=O)N1CCNC1=Nc1c(Cl)nc(C)nc1Cl | 0.444 µM | 0.498 µM | > 10 µM | –
26 | C=Cc1cc2ccccc2c2cc3c(cc12)C[N+](C)(C)C3 | 0.654 µM | 0.974 µM | > 100 µM | –
27 | CCCS(=O)(=O)c1c(S(=O)(=O)CCC)c2ccc(C(C)=O)cn2c1C(=O)c1ccc(C)cc1 | > 12.5 µM | 1.83 µM | > 100 µM | –
28 | O=C(N/C(=C/C=C/c1ccccc1)C(=O)N1CCOCC1)c1ccccc1 | > 1.25 µM | 0.0985 µM | > 10 µM | –
29 | O=C(Nc1ccc(N2CCCCC2)cc1)N1CCc2nc[nH]c2C1 | > 1.25 µM | 1.01 µM | > 6.67 µM | –
30 | CC(C)CNC(=O)c1cnc(NCCCn2ccnc2)nc1Nc1ccccc1 | 0.633 µM | 0.639 µM | > 10 µM | –
31 | Cc1cccc(NC(=S)NC2CC3CCCC(C2)N3CCc2ccccc2)c1 (centres undefined) | 0.668 µM | 0.914 µM | 30.7 µM | –
32 | CC(C)N1CC=C(c2c[nH]c3ccccc23)CC1 | 0.206 µM | 0.637 µM | > 100 µM | –
33 | Oc1ccc(-c2nc(-c3ccc4oc5ccc(-c6[nH]c(-c7ccc(O)cc7)nc6-c6ccccc6)cc5c4c3)c(-c3ccccc3)[nH]2)cc1 | 3.3 µM | 8.28 µM | > 100 µM | –
34 | CC1(C)N=C(N)N=C(N)N1c1ccc(Cl)cc1 [CHLORCYCLOGUANIL HYDROCHLORIDE] | 0.000986 µM | 0.884 µM | 27.4 µM | –
35 | CCOC(=O)c1c(C)[nH]c(C)c1S(=O)(=O)N1CCCC(C(=O)N2CCN(c3cccc(C)c3C)CC2)C1 (centres undefined) | 5.26 µM | > 12.5 µM | > 100 µM | –
36 | COc1ccc(C2=C(c3ccc(OC)cc3)C3(c4ccccc4)C(=O)C2(c2ccccc2)C2C(=O)N(c4ccc(F)cc4)C(=O)C23)cc1 (centres undefined) | 2.24 µM | 3.35 µM | > 100 µM | –
37 | CCOc1ccc2nc(Sc3nc(Nc4cccc(C)c4)nc(Nc4cccc(C)c4)n3)sc2c1 | 5.81 µM | > 12.5 µM | > 100 µM | –
38 | O=C(Nc1ccncc1)Nc1cccc(NC(=O)Nc2ccncc2)c1 | > 1.25 µM | 2.23 µM | > 10 µM | –
39 | COc1ccc(C2CC(=O)C3=C(C2)NC(C)=C(C(=O)OC2CCCC2)C3c2ccccc2OC)cc1OC (centres undefined) | 0.212 µM | 0.0728 µM | > 100 µM | –
40 | COc1ccc([N+](=O)[O-])cc1NC(=O)C(C)Nc1ccc(N(C)C)cc1 (centres undefined) | 0.343 µM | 0.86 µM | 34.2 µM | –
41 | COc1ccc(C2C(C(=O)O)c3ccccc3C(=O)N2c2ccc(C)cc2)cc1OC (centres undefined) | > 1.08 µM | > 1.25 µM | > 10 µM | –
42 | C[n+]1c2n(c3ccccc31)N=C(c1ccccc1)C[Se]2 | 0.471 µM | 0.832 µM | 23.6 µM | –
43 | Cc1ccc2cc3cc(C(=O)NC(C)C)sc3nc2c1 | 0.989 µM | 1.12 µM | > 10 µM | –
44 | COc1ccc2cc(CNCCCO)c(N3CCN(c4ccc(F)cc4)CC3)nc2c1 | 2.99 µM | 0.6 µM | 20.1 µM | –
45 | Cc1nc2ccccc2c(=O)n1-c1ccc([N+](=O)[O-])cc1 | 0.765 µM | 0.896 µM | > 10 µM | –
46 | CN(c1ccccc1)S(=O)(=O)c1ccc(C(=O)Nc2ccc(-c3nc4ccccc4[nH]3)cc2)cc1 | 0.788 µM | 1.04 µM | 42.8 µM | –

Row | SMILES | EC50 [1] | EC50 [2, 4] | CC50 [3] | EC50 [2]
47 | CC12CN(Cc3ccccc3)CC(C)(CN(Cc3cccc(Br)c3)C1)C2 | 3.62 µM | 0.819 µM | 47.2 µM | –
48 | Cc1ccc(-c2c[n+](CC(=O)c3ccccc3Cl)c3n2CCC3)cc1 | 1.01 µM | 1.11 µM | > 95.9 µM | –
49 | CCN1c2ccccc2N=C2C=CC(N)=CC21 (centres undefined) | 0.0596 µM | 0.278 µM | > 10 µM | –
50 | CCOc1ccc(CN(CCC(c2ccccc2)c2ccccc2)C(=O)Nc2ccccc2C)cc1 | > 1.35 µM | 1.85 µM | > 10 µM | –
51 | N#Cc1c(N)nc2sc(C(=O)c3ccc(F)cc3)c(N)c2c1-c1ccccc1 | > 1.25 µM | > 0.915 µM | > 10 µM | –
52 | CCCCNC(=O)c1ccc2c(c1)N=C(c1cccc(OCC)c1)N(CCCN1CCCC1=O)C2 | > 0.752 µM | > 1.25 µM | > 10 µM | –
53 | COc1ccc(C2CC(=O)C3=C(C2)NC(C)=C(C(=O)OC2CCCC2)C3c2ccc(OC)cc2)cc1 (centres undefined) | 3.26 µM | 0.649 µM | > 100 µM | –
54 | O=C(C=Cc1ccccc1)c1c(-c2ccccc2)c2cc([N+](=O)[O-])ccc2[nH]c1=O | > 9.37 µM | > 4.46 µM | > 100 µM | –
55 | O=C1C2C(C(=O)N1Cc1ccccc1)C1(c3ccccc3)C(=O)C2(c2ccccc2)C(c2ccccc2)=C1c1ccccc1 (centres undefined) | 0.822 µM | > 12.5 µM | > 100 µM | –
56 | COc1cc(Nc2cncc(-c3ccc(C(N)=O)cc3)n2)cc(OC)c1OC | 0.0295 µM | 0.0501 µM | 25.3 µM | –
57 | CCCCCCc1cc2cc(-c3nc4ccccc4[nH]3)c(=Nc3ccccc3C)oc2cc1O | 2.12 µM | – | > 100 µM | No fit
58 | O=C(c1cccc([N+](=O)[O-])c1)c1ccc(Cl)c(Cl)c1 | 0.612 µM | 0.0575 µM | 62.4 µM | –
59 | O=S(=O)(NCCNc1ncnc2scc(-c3ccccc3)c12)c1ccc(Cl)c(Cl)c1 | 0.29 µM | 0.307 µM | > 100 µM | –
60 | COc1ccc(CN(CC2CCN(C(=O)c3ccccc3Cl)CC2)C(=O)c2ccc(Cl)cc2Cl)cc1 | 7.25 µM | 3.31 µM | 24.3 µM | –
61 | CC1(C)Cc2c(sc(NC(=O)CCl)c2C#N)CO1 | 2.04 µM | 2.08 µM | 20.5 µM | –
62 | CC(C)CNc1nc(NCCCN2CCCCC2C)ncc1C(=O)NCc1ccccc1 (centres undefined) | 0.236 µM | 0.859 µM | > 10 µM | –
63 | Oc1c(C(Nc2ccccn2)c2cccc(Cl)c2Cl)ccc2cccnc12 (centres undefined) | 0.174 µM | 0.132 µM | > 100 µM | –
64 | COc1cccc(-c2ccc(O)c(CN3CCC(Cc4ccccc4)CC3)c2)n1 | 0.306 µM | 0.0861 µM | 38.5 µM | –
65 | CN1CCN(c2ccc(Nc3ccnc4ccccc34)cc2)CC1 | 0.22 µM | 0.237 µM | > 10 µM | –
66 | Cc1ccc(C)c(Nc2nc(NCc3ccco3)c3ccccc3n2)c1 | 0.298 µM | 0.844 µM | 5.94 µM | –
67 | COCCn1c(SCC(=O)c2ccc(C)cc2C)nnc1-c1ccco1 | > 0.868 µM | 0.295 µM | > 10 µM | –
68 | CC(C)(C)CC(C)(C)Nc1c(-c2ccccc2OC(=O)C2CCCCC2)nc2ccccn12 | 0.349 µM | 0.0101 µM | > 10 µM | –
